Laboratory results taken from patent US20070105890A1, “Novel condensed imidazole derivative” (DAINIPPON SUMITOMO PHARMA CO., LTD, priority 2003, published 2007).
Counter-ions that a name gives are not always drawn.

Columns and labels:
DPP-IV enzyme [1] = biological target: T1, DPP-IV enzyme (Homo sapiens, UniProt P27487); assay: In Vitro DPP-IV Inhibitory Effect Measurement Test (2), human serum; type: biochemical; details: DPP-IV in human serum (diluted 10-fold); substrate Glycyl-L-Proline 4-Methyl-Coumaryl-7-Amide 100 μM; Table 2
T1 construct: Human serum containing DPP-IV enzyme was used in an experiment after being diluted with assay buffer; from tissue; host or cells: human serum
T1 sequence (P27487 39-766 limits assumed): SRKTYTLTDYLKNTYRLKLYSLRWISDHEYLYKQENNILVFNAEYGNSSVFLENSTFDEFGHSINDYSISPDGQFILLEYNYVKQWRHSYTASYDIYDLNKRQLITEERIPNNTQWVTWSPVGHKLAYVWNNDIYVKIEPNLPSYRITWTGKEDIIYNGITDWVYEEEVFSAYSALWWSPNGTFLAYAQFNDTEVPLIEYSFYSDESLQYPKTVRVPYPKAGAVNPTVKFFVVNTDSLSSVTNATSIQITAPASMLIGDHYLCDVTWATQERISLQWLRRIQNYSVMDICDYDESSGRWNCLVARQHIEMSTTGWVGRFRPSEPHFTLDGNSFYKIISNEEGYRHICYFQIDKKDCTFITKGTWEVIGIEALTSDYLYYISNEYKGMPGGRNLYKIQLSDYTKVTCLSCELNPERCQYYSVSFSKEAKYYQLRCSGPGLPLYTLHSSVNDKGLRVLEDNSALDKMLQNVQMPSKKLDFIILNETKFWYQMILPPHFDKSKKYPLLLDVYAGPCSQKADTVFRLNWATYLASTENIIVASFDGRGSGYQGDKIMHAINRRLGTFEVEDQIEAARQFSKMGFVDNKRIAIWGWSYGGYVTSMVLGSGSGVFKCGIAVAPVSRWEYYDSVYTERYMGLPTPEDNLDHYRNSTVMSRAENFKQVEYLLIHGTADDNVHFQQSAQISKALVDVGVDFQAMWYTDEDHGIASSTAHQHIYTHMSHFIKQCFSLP
Method: In Vitro DPP-IV Inhibitory Effect Measurement Test (2)
Human serum containing DPP-IV enzyme was used in an experiment after being diluted with assay buffer (25 mM Tris-HCl, 140 mM NaCl, 10 mM KCl, pH 7.9) (finally, diluted 10-fold). Each of solutions of each test compound having various concentrations was added to the diluted serum and the resulting mixture was incubated at room temperature. Then, a substrate (Glycyl-L-Proline 4-Methyl-Coumaryl-7-Amide, Peptide Laboratories Co., Ltd.) was added thereto to a final concentration of 100 μM and the reaction was carried out at room temperature.
(§1) Compounds of Examples were used in this test.

DPP-IV enzyme [2] = biological target: T2, DPP-IV enzyme (Bos taurus, UniProt P81425); assay: In Vitro DPP-IV Inhibitory Effect Measurement Test (1), bovine plasma; type: biochemical; details: substrate Glycyl-L-Proline 4-Methyl-Coumaryl-7-Amide, Table 1
T2 construct: Bovine plasma containing DPP-IV enzyme was diluted with assay buffer; from tissue; host or cells: bovine plasma
T2 sequence (P81425 38-765 limits assumed): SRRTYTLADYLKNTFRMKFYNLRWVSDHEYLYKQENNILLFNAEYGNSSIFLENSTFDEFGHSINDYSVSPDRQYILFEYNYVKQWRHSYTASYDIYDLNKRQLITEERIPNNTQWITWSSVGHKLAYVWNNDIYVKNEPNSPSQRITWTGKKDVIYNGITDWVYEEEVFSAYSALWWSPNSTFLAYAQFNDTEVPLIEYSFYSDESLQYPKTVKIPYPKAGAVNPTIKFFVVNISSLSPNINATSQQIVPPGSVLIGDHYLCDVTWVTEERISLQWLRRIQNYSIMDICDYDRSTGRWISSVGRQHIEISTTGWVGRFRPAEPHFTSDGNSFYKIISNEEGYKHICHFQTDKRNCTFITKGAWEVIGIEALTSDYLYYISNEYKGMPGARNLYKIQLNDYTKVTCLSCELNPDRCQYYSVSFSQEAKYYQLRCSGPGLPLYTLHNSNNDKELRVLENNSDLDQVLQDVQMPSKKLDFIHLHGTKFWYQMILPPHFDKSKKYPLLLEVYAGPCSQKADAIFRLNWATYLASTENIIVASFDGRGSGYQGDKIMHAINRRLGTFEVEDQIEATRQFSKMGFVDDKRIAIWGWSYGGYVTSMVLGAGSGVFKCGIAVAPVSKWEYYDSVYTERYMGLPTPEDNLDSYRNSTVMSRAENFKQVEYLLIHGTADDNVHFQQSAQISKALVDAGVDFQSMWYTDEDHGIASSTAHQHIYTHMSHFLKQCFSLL
Method: In Vitro DPP-IV Inhibitory Effect Measurement Test (1)
Bovine plasma containing DPP-IV enzyme was diluted with assay buffer (25 mM Tris-HCl, 140 mM NaCl, 10 mM KCl, pH=7.9) and 50 μL of the dilution was added to a micro assay plate. After 1 μL of a solution of each compound was added, mixing was conducted, followed by incubation at room temperature. A substrate (Glycyl-L-Proline 4-Methyl-Coumaryl-7-Amide, Peptide Laboratories Co., Ltd.) was diluted to 0.2 mM with the assay buffer, and 50 μL of this solution was added and then stirred, followed by incubation at room temperature. Thereafter, the reaction was terminated by the addition of 100 μL of a 25% aqueous acetic acid solution. The intensity of fluorescence at an excitation wavelength of 360 nm and a measuring wavelength of 460 nm was measured by the use of a fluorescent plate reader. The difference in intensity of fluorescence between a background well in which the reaction had been terminated by previously adding a 25% aqueous acetic acid solution before the addition of the substrate solution and a control well to which no compound had been added was taken as 100%. The intensity of fluorescence of a well containing the compound was interpolated and the residual enzyme activity in the case of the addition of the compound was calculated as a relative value.
as §1

IC50 (DPP-IV enzyme [1]) [nM]	IC50 (DPP-IV enzyme [2]) [nM]	SMILES
45		N[C@@H]1CCCN(c2nc3c4cc(C(=O)O)ccc4[nH]c(=O)c3n2Cc2ccccc2Cl)C1 [Example 48, 2-{(3R)-3-Aminopiperidin-1-yl}-3-(2-chlorobenzyl)-4-oxo-4,5-dihydro-3H-imidazo[4,5-c]quinoline-8-carboxylic acid hydrochloride]
14		Cn1c(=O)c2c(nc(N3CCC[C@@H](N)C3)n2Cc2ccccc2Cl)c2c(C(=O)O)c(F)ccc21 [Example 97, 2-[(3R)-3-aminopiperidin-1-yl]-3-(2-chlorobenzyl)-8-fluoro-5-methyl-4-oxo-4,5-dihydro-3H-imidazo[4,5-c]quinoline-9-carboxylic acid hydrochloride]
	203	N[C@@H]1CCCN(c2nc3ccn(-c4cccc(F)c4)c(=O)c3n2Cc2ccccc2Cl)C1 [Example 30]
42		COC(=O)c1c2c(nn1Cc1ccc(OC)cc1)c1nc(N3CCC[C@@H](N)C3)n(Cc3ccccc3Cl)c1c(=O)n2C [Example 94, Methyl 7-[(3R)-3-aminopiperidin-1-yl]-6-(2-chlorobenzyl)-2-(4-methoxybenzyl)-4-methyl-5-oxo-2,4,5,6-tetrahydroimidazo[4,5-d]pyrazolo[4,3-b]pyridine-3-carboxylate hydrochloride]
	11	Cn1c(C#N)cc2nc(N3CCC[C@@H](N)C3)n(Cc3ccccc3Cl)c2c1=O [Example 2, 2-[(3R)-3-Aminopiperidin-1-yl]-3-(2-chlorobenzyl)-5-methyl-4-oxo-4,5-dihydro-3H-imidazo[4,5-c]pyridine-6-carbonitrile hydrochloride]
	5	N[C@@H]1CCCN(c2nc3cc(C(=O)O)[nH]c(=O)c3n2Cc2ccccc2Cl)C1 [Example 13]
11		Cn1c(=O)c2c(nc(N3CCC[C@@H](N)C3)n2Cc2ccccc2Cl)c2cc3c(cc21)C(=O)OC3 [Example 90, 2-[(3R)-3-Aminopiperidin-1-yl]-3-(2-chlorobenzyl)-5-methyl-5,9-dihydro-3H-furo[3,4-g]imidazo[4,5-c]quinoline-4,7-dione hydrochloride]
	1.4	N[C@@H]1CCCN(c2nc3ccn(CC(=O)c4ccccc4)c(=O)c3n2Cc2ccccc2Cl)C1 [Example 7]
12		Cn1c(=O)c2c(nc(N3CCC[C@@H](N)C3)n2Cc2ccccc2Cl)c2csc(C(=O)O)c21 [Example 102, 2-[(3R)-3-Aminopiperidin-1-yl]-3-(2-chlorobenzyl)-5-methyl-4-oxo-4,5-dihydro-3H-imidazo[4,5-d]thieno[3,4-b]pyridine-6-carboxylic acid hydrochloride]
	44	Cn1ccc2nc(N3CCC[C@@H](N)C3)n(Cc3cc(F)ccc3Cl)c2c1=O [Example 11]
	68	Cn1ccc2nc(N3CCC[C@@H](N)C3)n(Cc3ccccc3Cl)c2c1=O [Example 4, 2-[(3R)-3-Aminopiperidin-1-yl]-3-(2-chlorobenzyl)-5-methyl-3,5-dihydro-4H-imidazo[4,5-c]pyridin-4-one]
	112	COc1cccc(CC(=O)c2cc3nc(N4CCC[C@@H](N)C4)n(Cc4ccccc4Cl)c3c(=O)n2C)c1 [Example 38]
